Test results taken from PMC11480954, “Molecular determinants of resurgent sodium currents mediated by Navβ4 peptide and A-type FHFs” (Frontiers in Molecular Neuroscience, 2024).

Columns and labels:
Type in all cases: cell-based, human
[1] = system: Nav1.8 Y1717K; assay: INaR, Nav1.8 mutant Y1717K; settings: 1 mM FHF4A peptide, + FHF2B, ND7/23; n = 10; p > 0.05 vs Nav1.8
Method: (§1) HEK293 cells and ND7/23 cells were grown under standard tissue culture conditions (5% CO2 and 37°C) in DMEM supplemented with 10% FBS, 1% penicillin and 1% streptomycin. Using Invitrogen Lipofectamine 2000, human Nav1.7 R1599P (rpNav1.7) and the mutant constructs were transiently co-transfected with Navβ1 and Navβ2 into HEK293 cells. The constructs human Nav1.8 and mutants were transiently co-transfected with FHF2B or FHF4A into ND7/23 cells. The lipofectamine-DNA mixture was added to the cell culture medium and left for 3 h after which the cells were washed with fresh medium. Cells with green fluorescent protein fluorescence were selected for whole-cell patch-clamp recordings 36–72 h after transfection.
(§2) Whole-cell voltage-clamp recordings were performed at room temperature (~21°C) using an EPC-10 amplifier and the Pulse program (HEKA Electronics). […]
(§3) INaR: INaR was elicited by repolarizing voltage steps from +20 to −80 mV for 100 ms (or 200 ms) in −5 mV increments, following a 20-ms depolarizing potential of +30 mV. […] The relative INaR in Nav1.7 and Nav1.8 was calculated by normalizing to the peak transient current elicited at −10 or 0 mV.

[2] = system: Nav1.8 Y1717K; assay: Gating properties, Nav1.8 mutant Y1717K
Method: as §1
(§4) Whole-cell voltage-clamp recordings were performed at room temperature (~21°C) using an EPC-10 amplifier and the Pulse program (HEKA Electronics). Fire-polished electrodes (0.7–1.0 MΩ) were fabricated from 1.7 mm capillary glass using a P-97 puller (Sutter Instruments), and the tips were coated with sticky wax (KerrLab) to reduce electrode capacitance and enable increased series resistance compensation. The pipette solution contained (in mM) 140 CsF, 1.1 EGTA, 10 NaCl, and 10 HEPES, pH 7.3. The bathing solution was (in mM) 130 mM NaCl, 30 mM TEA chloride, 1 mM MgCl2, 3 mM KCl, 1 mM CaCl2, 10 mM HEPES, and 10 mM d-glucose, pH 7.3 (adjusted with NaOH). […] The offset potential was zeroed before contacting the cell. After establishing the whole-cell recording configuration, the resting potential was held at −120 or −100 mV for 5 min to allow adequate equilibration between the micropipette solution and the cell interior. Linear leak subtraction, based on resistance estimates from four to five hyperpolarizing pulses applied before the depolarizing test potential, was used for all voltage clamp recordings. Membrane currents were usually filtered at 5 kHz and sampled at 20 kHz. […] Voltage errors were minimized using 80–95% series resistance compensation, and the capacitance artifact was canceled using the computer-controlled circuitry of the patch clamp amplifier. […] The concentration-dependent curves were fitted to a hill equation: Y = Bottom + (Top-Bottom)/(1 + 10^((LogEC50-X)*HillSlope)).
(§5) Families of sodium currents were induced by 50-ms depolarizing steps to various potentials ranging from −120 (or −100) to +40 mV in 5-mV increments. The conductance was calculated using the equation G(Nav) = I/(V - Vrev) in which I, V, and Vrev represent inward current value, membrane potential, and reversal potential, respectively.
(§6) Voltage dependence of steady-state inactivation was estimated using a standard double pulse protocol in which sodium currents were induced by a 50-ms depolarizing potential of 0 mV following a 500-ms prepulse at potentials that ranged from −150 to +10 mV with a 10-mV increment. Currents were plotted as a fraction of the maximum peak current. To obtain the midpoint voltages (V1/2) and slope factor (k), the curves of both steady-state activation and inactivation were fitted to a Boltzmann function.

[3] = system: Nav1.8 F1710K; assay: INaR, Nav1.8 mutant F1710K; settings: 1 mM FHF4A peptide
Method: as §1, §2, §3

[4] = system: Nav1.8 Y387K; assay: Gating properties, Nav1.8 mutant Y387K; settings: 1 mM FHF4A peptide
Method: as §1, §4
as §5, with “respectively. […]” for “respectively.”

[5] = system: Nav1.8 F1710K; assay: Gating properties, Nav1.8 mutant F1710K
Method: as §1, §4, §5, §6

Q: “AAAIASGLIRQKRQAREQHW [FHF4A peptide, synthetic 20-residue peptide from FHF4A A2 – W21]” was tested. Which “average INaR amplitude at −15 mV, Y1717K” value [1] did it give?
A: 4.6% ± 0.8%

Q: And the “V1/2 of steady-state inactivation, Y1717K vs Nav1.8” value ([2]; 1 mM FHF4A peptide)?
A: None of four lysine-mutations significantly changed the V1/2 value of steady-state inactivation

Q: And the “Inactivation (V1/2), Y1717K” value ([2]; 1 mM FHF4A peptide, + FHF2B, ND7/23, n = 10)?
A: −38.4 ± 1.0 (10) mV

Q: What about the “Activation (V1/2), Y1717K” value ([2]; 1 mM FHF4A peptide, + FHF2B, ND7/23, n = 10, ***p < 0.0001) of the same sequence?
A: 7.3 ± 1.5*** (10) mV

Q: What about the “INaP, Y1717K” value ([2]; end of 50-ms pulse of +10 mV, normalized to peak transient current, 1 mM FHF4A peptide, n = 10) of the same sequence?
A: 5.4 ± 3.8 (10) %

Q: And the “positive shift of voltage dependence of activation by Y1717K” value ([2]; vs Nav1.8, 1 mM FHF4A peptide)?
A: 18.4 mV

Q: What about the “average INaR amplitude at −15 mV, F1710K” value ([3]; + FHF2B, ND7/23, n = 6, p < 0.0001 vs Nav1.8) of the same sequence?
A: 0.5% ± 0.1%

Q: And the “decrease of INaR amplitude by F1710K” value ([3]; −15 mV, vs Nav1.8)?
A: ninefold

Q: What about the “V1/2 of steady-state inactivation, Y387K vs Nav1.8” value [4] of the same sequence?
A: None of four lysine-mutations significantly changed the V1/2 value of steady-state inactivation

Q: And the “Activation (V1/2), Y387K” value ([4]; + FHF2B, ND7/23, n = 10)?
A: −9.9 ± 2.1 (10) mV

Q: What about the “Inactivation (V1/2), Y387K” value ([4]; + FHF2B, ND7/23, n = 10) of the same sequence?
A: −30.7 ± 1.5 (10) mV

Q: And the “INaP, Y387K” value ([4]; end of 50-ms pulse of +10 mV, normalized to peak transient current, n = 8)?
A: 3.6 ± 0.9 (8) %

Q: And the “V1/2 of steady-state inactivation, F1710K vs Nav1.8” value ([5]; 1 mM FHF4A peptide)?
A: None of four lysine-mutations significantly changed the V1/2 value of steady-state inactivation

Q: And the “Inactivation (V1/2), F1710K” value ([5]; 1 mM FHF4A peptide, + FHF2B, ND7/23, n = 7)?
A: −41.1 ± 5.5 (7) mV

Q: What about the “Activation (V1/2), F1710K” value ([5]; 1 mM FHF4A peptide, + FHF2B, ND7/23, n = 7, ***p < 0.0001) of the same sequence?
A: 19.9 ± 2.0*** (7) mV

Q: What about the “INaP, F1710K” value ([5]; end of 50-ms pulse of +10 mV, normalized to peak transient current, 1 mM FHF4A peptide, n = 6, **p < 0.01) of the same sequence?
A: 0.8 ± 0.9^** (6) %

Q: And the “positive shift of voltage dependence of activation by F1710K” value ([5]; vs Nav1.8, 1 mM FHF4A peptide)?
A: 31.0 mV
